Laboratory results reported in the NIST ThermoML archive (doi:10.1021/je030133a).
Values joined by “and” are separate entries in the source; they are usually repeats but may differ in a detail not shown here. Equal entries are not always repeated.

Key:
[1] = xn = mol fraction of the nth substance listed; settings: 101.3 kPa, Liquid
[2] = 101.3 kPa, Liquid

C1COCCO1 [1,4-dioxane] + ClC(Cl)(Cl)Cl
[1], x1 = 1
Settings | mass density [kg/m3] | viscosity [mPa·s]
303.15 K | 1022.3 | 1.099
308.15 K | 1016.7 | 1.03
313.15 K | 1012 | 0.9575

C1COCCO1 [1,4-dioxane] + CCCCO
[1]
Settings | mass density, 303.15 K [kg/m3] | mass density, 308.15 K [kg/m3] | mass density, 313.15 K [kg/m3] | viscosity, 303.15 K [mPa·s] | viscosity, 308.15 K [mPa·s] | viscosity, 313.15 K [mPa·s]
x1 = 0.1066 | 826.5 | 818.4 | 816.8 | 2.011 | 1.683 | 1.522
x1 = 0.2116 | 847.6 | 839.9 | 837.9 | 1.635 | 1.362 | 1.281
x1 = 0.3151 | 868.6 | 861.3 | 859 | 1.37 | 1.165 | 1.094
x1 = 0.4171 | 889.9 | 882.7 | 880.2 | 1.243 | 1.081 | 0.9963
x1 = 0.5177 | 911.3 | 904.3 | 901.5 | 1.164 | 1.032 | 0.9565
x1 = 0.6169 | 932.8 | 926.2 | 923.1 | 1.093 | 1.007 | 0.9426
x1 = 0.6659 | 943.6 | 937.3 | 934 | 1.064 | 0.9903 | 0.9289
x1 = 0.7146 | 954.6 | 948.4 | 945.2 | 1.038 | 0.9768 | 0.919
x1 = 0.763 | 965.6 | 959.6 | 956.3 | 1.016 | 0.9543 | 0.9043
x1 = 0.8111 | 976.7 | 971 | 967.4 | 1.015 | 0.9484 | 0.9234
x1 = 0.8588 | 987.9 | 982.3 | 978.6 | 1.031 | 0.9507 | 0.9384
x1 = 0.9062 | 999.2 | 993.6 | 989.7 | 1.065 | 0.9793 | 0.9315
x1 = 1 | 1022.3 | 1016.7 | 1012 | 1.098 | 1.03 | 0.9575

ClC(Cl)(Cl)Cl [tetrachloromethane]
[2]
Settings | mass density | viscosity
303.15 K | 1580.6 kg/m3 | 0.8689 mPa·s
308.15 K | 1575.7 kg/m3 | 0.8307 mPa·s
313.15 K | 1570.9 kg/m3 and 1571.3 kg/m3 | 0.807 mPa·s and 0.8072 mPa·s

CCCCO [butan-1-ol] + ClC(Cl)(Cl)Cl
[1], x2 = 0
Settings | mass density [kg/m3] | viscosity [mPa·s]
303.15 K | 805.7 | 2.282
308.15 K | 797.2 | 1.907
313.15 K | 795.5 | 1.681

CCCCO [butan-1-ol]
[2]
Settings | mass density [kg/m3] | viscosity
303.15 K | 805.7 | 2.282 mPa·s
308.15 K | 797.2 | 1.907 mPa·s and 1.895 mPa·s
313.15 K | 795.5 | 1.681 mPa·s

ClC(Cl)(Cl)Cl [tetrachloromethane] + CCCCO
[1]
Settings | mass density, 303.15 K [kg/m3] | mass density, 308.15 K [kg/m3] | mass density, 313.15 K [kg/m3] | viscosity, 303.15 K [mPa·s] | viscosity, 308.15 K [mPa·s] | viscosity, 313.15 K [mPa·s]
x1 = 0.0954 | 885 | 876 | 873.9 | 2.028 | 1.698 | 1.498
x1 = 0.1918 | 964.8 | 955.5 | 953 | 1.708 | 1.444 | 1.293
x1 = 0.2891 | 1044.5 | 1034.7 | 1031.7 | 1.496 | 1.276 | 1.172
x1 = 0.3875 | 1123.5 | 1113.8 | 1110.1 | 1.356 | 1.157 | 1.069
x1 = 0.4869 | 1201.2 | 1191.8 | 1187.6 | 1.248 | 1.096 | 1.038
x1 = 0.5874 | 1277.3 | 1268.5 | 1264.2 | 1.157 | 1.052 | 0.9981
x1 = 0.6889 | 1352.2 | 1344.8 | 1340.9 | 1.069 | 1.004 | 0.9502
x1 = 0.7401 | 1389.9 | 1382.7 | 1378.8 | 1.025 | 0.9705 | 0.9211
x1 = 0.7915 | 1427.1 | 1420.2 | 1415.9 | 1.005 | 0.9552 | 0.8947
x1 = 0.8432 | 1463.6 | 1457.8 | 1454.2 | 0.9778 | 0.9211 | 0.8727
x1 = 0.8952 | 1501.2 | 1495.7 | 1491.8 | 0.9554 | 0.8975 | 0.8612
x1 = 0.9475 | 1538.9 | 1534.3 | 1530.5 | 0.9164 | 0.8787 | 0.8346
x1 = 1 | 1580.6 | 1575.7 | 1571.3 | 0.8689 | 0.8307 | 0.8072

C1COCCO1 [1,4-dioxane]
[2]
Settings | mass density [kg/m3] | viscosity
303.15 K | 1022.3 | 1.099 mPa·s and 1.098 mPa·s
308.15 K | 1016.7 | 1.03 mPa·s
313.15 K | 1012 | 0.9575 mPa·s

ClC(Cl)(Cl)Cl [tetrachloromethane] + C1COCCO1
[1]
Settings | mass density, 303.15 K [kg/m3] | mass density, 308.15 K [kg/m3] | mass density, 313.15 K [kg/m3] | viscosity, 303.15 K [mPa·s] | viscosity, 308.15 K [mPa·s] | viscosity, 313.15 K [mPa·s]
x2 = 0 | 1580.6 | 1575.7 | 1570.9 | 0.8689 | 0.8307 | 0.807
x2 = 0.1116 | 1520.6 | 1517.3 | 1513.2 | 0.945 | 0.8954 | 0.8454
x2 = 0.2204 | 1462.3 | 1458.6 | 1455.1 | 0.9938 | 0.9391 | 0.8848
x2 = 0.3265 | 1405.3 | 1401.1 | 1396.9 | 1.036 | 0.9771 | 0.9244
x2 = 0.4299 | 1349 | 1344.8 | 1340.9 | 1.073 | 1.01 | 0.9531
x2 = 0.5307 | 1294.3 | 1290.5 | 1286.9 | 1.11 | 1.044 | 0.9892
x2 = 0.6291 | 1240.9 | 1236.2 | 1232.5 | 1.136 | 1.066 | 1.008
x2 = 0.7252 | 1187.4 | 1182.4 | 1177.9 | 1.145 | 1.066 | 0.9996
x2 = 0.7724 | 1161.1 | 1155.9 | 1150.9 | 1.145 | 1.063 | 0.9971
x2 = 0.819 | 1134.4 | 1128.5 | 1123.2 | 1.139 | 1.058 | 0.9881
x2 = 0.865 | 1107.7 | 1101.6 | 1096 | 1.131 | 1.052 | 0.9836
x2 = 0.9105 | 1081 | 1074.7 | 1069.2 | 1.123 | 1.05 | 0.9785
x2 = 0.9555 | 1052.6 | 1046.5 | 1041.2 | 1.117 | 1.046 | 0.9667

CCCCO [butan-1-ol] + C1COCCO1
[1], x2 = 0
Settings | mass density [kg/m3] | viscosity [mPa·s]
303.15 K | 805.7 | 2.282
308.15 K | 797.2 | 1.895
313.15 K | 795.5 | 1.681
